Data published in patent US7419667B2, “Drug for cancer therapy” (Morinaga Milk Industry Co. Ltd., priority 2004, dated 2008).

Tested on: human Burkitt lymphoma Raji cells
Test: Test Example 5: effect on cytotoxic activity of rituximab and complement, PI flow cytometry (FIG. 1)
Format: cell-based
Conditions: rituximab + 10% human normal serum (AB type), sample 1.0 mg/ml final, 1 hour
Description: The lactoferrin hydrolysate mixture prepared in Preparation Example 1 was used as Sample A, and the lactoferrin hydrolyzed peptide (lactoferrin partial peptide) prepared in Preparation Example 2 was used as Sample B. Moreover, as control samples, commercially available bovine lactoferrin (Morinaga Milk Industry Co., Ltd.) was used as Control A, and protamine sulfate was used as Control B.
Raji cells in the logarithmic growth phase were used as target cells. Raji cells collected by centrifugation of a cell suspension were suspended in fresh culture broth (RPMI 1640, 10% FCS), counted and then added to a 24-well plate in an amount of 1.0×10^5 cells/well. To each well, rituximab ([…]) and 1.0 mg/ml as a final concentration of Sample A, Sample B, Control A or Control B (or Medium [culture broth] instead of the sample) were added, and then human normal serum (AB type) was added at a final concentration of 10%. Then, the cells were cultured in a CO2 incubator for 1 hour, and PI (propidium iodide, 1 mg/ml) was added during the last 15 minutes of the culture. […] The Raji cells that died during the culture were counted by analyzing the suspension with a flow cytometer (FACScan) utilizing the fact that dead cells are positive in the nuclear staining with PI.
In this test, the cytotoxic activity was calculated in accordance with the following equation. […]

Substance: protamine sulfate [Control B]
- cytotoxic activity [number of dead cells (%)] relative to Medium (culture broth): such increase of the activity was not observed
